# Experimental data reported in PMC6222706, “Evaluation of the Antioxidant and Neuroprotectant Activities of New Asymmetrical 1,3-Diketones” (Molecules : A Journal of Synthetic Chemistry and Natural …, 2018).
# Tests used:
# [1] = Cytotoxicity in SH-SY5Y cells (MTT); assay type: cell-based; details: human, SH-SY5Y neuronal cells, concentration reducing cell viability to 50% of control
# Description: So, to study the neuroprotectant potential of β-diketones in the SH-SY5Y cell line, we firstly need to determine their cytotoxicity in the same cellular model. […] In addition to that, within each series, the introduction of a second fluorine atom in the left-hand side phenyl ring decreases also the cytotoxicity.
# SH-SY5Y cells were seeded into 96-well plates at a density of 5 × 10^3 cells/well and grown in the incubator for 24 h. All compounds tested were dissolved and eventually further diluted in dimethylsulfoxide (DMSO). After overnight incubation, the cells were treated with different test concentrations (5, 10, 20, 50, 100, 150, 200 µM) in a final volume of 200 µL with four replicates each. […] Cell proliferation or viability was measured using the 3-(4,5-dimethylthiazol-2-yl)-2,5-diphenyl tetrazolium bromide (MTT) assay. After 24 h, 20 µL of MTT (5 mg/mL) was added to each well and the plate was incubated at 37 °C in the dark for 2 h. Supernatants were removed and the formazan crystals were solubilized in DMSO (200 µL/well), under 10 min shaking at room temperature. The reduction of MTT was quantified by absorbance at 570 nm Varioskan microplate reader (Thermo Fisher Scientific, Vantaa, Finland). Effects of the test compounds on cell viability were calculated using cells treated with vehicle as control. The data were subjected to linear regression analysis and the regression lines were plotted for the best fit. The IC50 (inhibition of cell viability) concentrations were calculated using the respective dose-response curves.
# [2] = FRAP (Ferric Reducing Antioxidant Power) assay; assay type: biochemical; details: for FRAP-TEAC100: Trolox Equivalent Antioxidant Capacity vs 100 µM solution of the substance, from FRAP assay; for FRAP Assay (%) at 100 µM / FRAP Assay (%) at 200 µM: 30 min, 593 nm
# Description: The assay was carried out according to the method of Benzie et al. with slight modifications, in a 96-well microplate. FRAP reagent was prepared by mixing 10 mL of 300 mM acetate buffer with 1 mL of 10 mM 2,4,6-tripyridyl-S-triazine (TPTZ) in HCl 40 mM and 1mL of FeCl3·6H2O 20 mM. Firstly, 190 µL of the FRAP reagent were added to all wells of the 96-well plate, followed by the addition to the well of 10 µL of the test compounds dissolved in Ethanol to reach the final concentrations assayed (0, 5, 10, 20, 50, 100, 150, 200 µM). After 30 min incubation in the dark, the absorbance was read at 593 nm. Trolox was used as assay control. Three different assays were carried out by quadruplicate for each compound.
# [3] = ABTS radical scavenging assay; assay type: biochemical; details: for IC50: 30 min incubation, EtOH, absorbance at 734 nm; for ABTS-TEAC100: Trolox Equivalent Antioxidant Capacity vs 100 µM solution of the substance, from ABTS assay
# Description: ABTS^+ radical was produced by reacting 2,2′-azino-bis-3-ethylbenzthiazoline-6-sulphonic acid (ABTS) 7 mM with K2S2O8 2.45 mM, both reactants dissolved in water, and at the volume ratio of 1:1. The mixture was stored in the dark at room temperature for 16 h. The ABTS^+ solution was diluted to give an absorbance of 0.750 ± 0.025 at 734 nm in EtOH. All the compounds tested were dissolved in EtOH. 150 µL of each compound solution was added to the wells of the 96-well plate, followed by the addition of 50 µL of the ABTS^+ radical solution. Final compound concentrations tested were 0, 5, 10, 20, 50, 100, 150, 200 µM. The absorbance change at 734 nm was recorded after 30 min incubation in the dark, and the percentage of radical scavenging was calculated for each concentration relative to a blank containing no scavenger. The degree of decolorization was calculated as the percentage reduction of absorbance. The ABTS^+ radical scavenging activity was calculated as follows: Percentage ABTS^+ radical scavenging activity = {1 − [As/Ac]} × 100(1) where As is the absorbance of the ABTS^+ radical solution containing samples and Ac the absorbance of the control solution without antioxidant. The percentages of ABTS^+ radical reduced were plotted against compound concentration. Trolox was used as a reference antioxidant. All the assays were carried out three times by quadruplicate for each compound.
# [4] = DPPH radical scavenging assay; assay type: biochemical; details: antioxidant concentration that decreases initial DPPH^• concentration by 50%; 30 min, 517 nm
# Description: The assay was performed in a 96-well microplate. A 0.2 mM solution of 2,2-diphenyl-1-picryl-hydrazyl-hydrate (DPPH) in ethanol was prepared. All the compounds tested were dissolved in EtOH. Firstly, 150 µL of each compound solution was added to the wells of the 96-well plate, followed by the addition of 50 µL of the DPPH solution. Final compound concentrations tested were 0, 5, 10, 20, 50, 100, 150, 200 µM. The change in absorbance at 517 nm was measured after 30 min incubation in the dark. The free radical scavenging activity was calculated as inhibition using the following Equation (2): Percentage DPPH radical scavenging activity = {1 − [As/Ac]} × 100(2) where As is the absorbance of the DPPH solution containing samples and Ac the absorbance of the control solution without antioxidant but with DPPH. The percentages of DPPH reduced were plotted against compound concentration. The experiment was also conducted using Trolox as reference antioxidant. Assays were performed three times by quadruplicate for each compound.
# SH-SY5Y cells [5] = test: Mitochondrial membrane potential by flow cytometry (JC-1) in SH-SY5Y cells under H2O2; assay type: cell-based, human; details: 400 µM H2O2, no compound
# Description: To confirm this MMP recovery results, flow cytometry experiments were carried out with compound 7b and SH-SY5Y cells. Cells were treated with 7b for 24 h and then were exposed to 400 µM H2O2 for 4 h. JC-1 was used as fluorescence indicator of MMP state. In flow cytometry studies of MMP, JC-1 is excited at 488 nm wavelength. Both JC-1 aggregates and monomers show green fluorescence (peak emission at 527 nm) measured in the FL1 channel. […] Thus, healthy non-apoptotic cells are detected in both FL1 and FL2 channels, while cells with disrupted mitochondrial function show fluorescence in FL1 channel but reduced FL2 intensity. […] From these flow cytometry experiments, we can confirm that after compound 7b treatment there is a significant MMP recovery in SH-SY5Y cells under oxidative stress pressure.
# For MMP flow cytometry studies, 10^5 SH-SY5Y cells were seeded in 6 well plates. After 24 h, cells were treated with test compound and incubated for other 24 h. After the treatment period, cells were exposed to H2O2 for 4 h. Then, cells were washed twice with Hanks buffer and stained with 5 µM JC-1 in culture media in dark, in a CO2 incubator at 37 °C for 20 min. After the staining period, cells were washed three times with Hanks buffer, collected and resuspended in 500 µL culture media. Data were obtained and analyzed using an Accuri C6 flow cytometer (BD Biosciences, Ann Arbour, MI, USA). […]
# SH-SY5Y cells [6] = test: Mitochondrial membrane potential (JC-1, microplate reader) in SH-SY5Y cells under H2O2; assay type: cell-based, human; details: SH-SY5Y exposed to 200 µM H2O2 for 24 h, no compound
# Description: To know whether β-diketones 6b and 7b will protect the mitochondrial membrane from depolarization under oxidative stress conditions, MMP experiments were carried out with the cationic dye JC-1 (5,5′,6,6′-tetrachloro-1,1′,3,3′-tetraethylbenzimi-dazolylcarbocyanine iodide). JC-1 enters selectively into mitochondria and reversibly change color from red to green as the membrane potential decrease. In healthy cells, JC-1 forms red fluorescent J-aggregates while in apoptotic cells with low MMP, JC-1 remains as monomers with green fluorescence. The ratio of J-aggregates to J-monomers is an indication of healthy non-apoptotic cells.
# The fluorescent dye 5,5′,6,6′-tetrachloro-1,1′,3,3′-tetraethylbenzimidazolylcarbocyanine iodide (JC-1) was used for measuring MMP [111]. A decrease in fluorescence intensity represents mitochondrial membrane depolarization. For fluorescence ratio detection under oxidative stress conditions, 96 well plates were seeded with 3 × 10^3 SH-SY5Y cells and after 24 h incubation they were treated with test compound and left out for 24 h. Then, cells were exposed to different H2O2 concentrations for 24 h. After the incubation period, cells were washed twice with Hanks buffer and then stained with 5 µM JC-1 in culture media in dark, in a CO2 incubator at 37 °C for 20 min. At the end of the dye incubation period, cells were washed three times with Hanks buffer and 200 µL of fresh buffer was added. Cells were analyzed with a Varioskan microplate reader. J-aggregates red fluorescence intensity was measured at 535 nm excitation and 595 nm emission wavelength, while excitation at 485 nm and emission 535 nm wavelength was used for J-monomers green fluorescence. Results were expressed as the ratio of fluorescence intensity of J-aggregates to J-monomers. […] JC-1 aggregates show red fluorescence (peak emission at 590 nm) measured in the FL2 channel. Thus, healthy non-apoptotic cells are detected in both FL1 and FL2 channels, while cells with disrupted mitochondrial function show fluorescence in FL1 channel but reduced FL2 intensity.
# SH-SY5Y cells [7] = details: read-out: H2O2 lethal dose (EC50; LD50), 24 h incubation, cell viability 50% of the control
# Description: To test our work hypothesis, neuroprotection studies were carried out with β-diketones 6b and 7b in the SH-SY5Y cell line under oxidative stress conditions.
# [8] = Kinetic solubility by UV spectrometry in 10 mM PBS; assay type: physicochemical; details: 10 mM phosphate buffered saline, aqueous buffer, kinetic from dmso stock
# Description: Among the most important physicochemical parameters in drug-discovery, solubility and chemical stability in aqueous media are the determinants for non-toxic and brain-permeable drug-like compounds with good bioavailability. So, compounds with good aqueous solubility are the best candidates for drug-discovery progression. […] The assays were performed at room temperature, in 10 mM Phosphate Buffered Saline (PBS) from compound stocks in DMSO at 20 mM concentration.
# A modified protocol was used from that described by Hoelke et al. for the determination of the kinetic solubility from DMSO compound solutions. A compound calibration curve (compound concentration vs. UV absorption) was prepared on a 48 well plate for each compound with concentrations in the range of 10 µM to […]. Each compound dilution was carried out by pipetting defined volumes of a 20 mM stock compound solution in DMSO into the wells and adding PBS 10 mM to reach a final volume of 500 µL/well. The final amount of DMSO per well was 2%. For the lower compound concentrations, an additional volume of DMSO was added into each well to reach the 2% of DMSO. Then, 200 µL of each dilution was transferred to a new 96 well plate for the measurement of the UV-spectra. One well in each row was left without compound as a blank and its UV absorbance was used as an offset correction. The experiments were carried out by duplicate.
# (§1) In parallel compound saturation solutions were obtained and filtered from 20 mM compound stock in DMSO. So, 10 µL of 20 mM stock solution were dispensed to 190 µL of PBS 10 mM. The solutions were mixed, shaken in a microplate shaker for two hours, and then 160 µL of each solution were filtered and transferred to a new well plate for UV absorption measure. The compound stability in PBS 10 mM was determined at 24, 48 and 72 h with solutions prepared as those for the compound calibration curve.
# Measurement of the UV-spectra was performed using a Varioskan microplate reader and spectra were taken in the range of 270–600 nm. Spectral bandwidth was set to 5 nm and the data pint interval was 10 nm. […]
# SH-SY5Y cells [9] = test: SH-SY5Y neuroprotection assay against H2O2 (MTT); assay type: cell-based, human; details: compound 5-50 µM for 24 h, then 200 µM H2O2 for 24 h
# Description: For neuroprotection experiments, SH-SY5Y cells were treated with test compound at different concentrations (5, 10, 20, 30, 40, and 50 µM) for 24 h. After the incubation period, cells were exposed to H2O2 200 µM for 24 h. At the end of the treatment, cell viability was measure with MTT.
# Compound neuroprotection under H2O2-induced oxidative stress was assessed by MTT assay. Briefly, SH-SY5Y were seeded into 96-well plates at a density of 3 × 10^3 cells/well and grown in the incubator for 24 h. Cells were pretreated for 24 h with different compound concentrations (5, 10, 20, 30, 40, 50 µM). After the treatment period, cells were exposed to 200 µM H2O2 for 24 h. Cell viability was measured with MTT following the same procedure described above. Cell viability was expressed as the percentage of the control value (cells without treatment with H2O2).
# [10] = Chemical stability in 10 mM PBS; assay type: physicochemical; details: 6b, 7b at 400 µM, curcumin at 50 µM
# Description: It is also important to know compound integrity at those concentrations used in biological assays, and for that, the chemical stability was determined in 10 mM PBS after 6 h, 24 h and 48 h.
# as §1
melting point [°C],IC50 [3] [µM],IC50 [4] [µM],Compound,IC50 at 24 h [1] [µM],FRAP-TEAC100 [2],FRAP Assay (%) at 100 µM [2] [%],FRAP Assay (%) at 200 µM [2] [%],ABTS-TEAC100 [3],Increase in the FLA-1/FLA-2 ratio (SH-SY5Y cells [5]) [fold],MMP reduction (SH-SY5Y cells [6]),EC50 (SH-SY5Y cells [7]) [µM],solubility at 2 h [8] [µg/mL],Cell viability after H2O2 (neuroprotection) (SH-SY5Y cells [9]),Remaining Compound (%) 0 h ([10]; 0 h) [%],Remaining Compound (%) 6 h ([10]; 6 h) [%],Remaining Compound (%) 24 h ([10]; 24 h) [%],Remaining Compound (%) 48 h ([10]; 48 h) [%]
179.3,79.6 ± 4.3,–,"O=C(/C=C(O)/C=C/c1ccc(O)c(F)c1F)c1ccccc1 [Compound 7a, (2Z,4E)-5-(2,3-Difluoro-4-hydroxyphenyl)-3-hydroxy-1-phenylpenta-2,4-dien-1-one]",126 ± 8,0.22,14.0,20.7,0.69,–,–,–,–,–,–,–,–,–
159.9,50.5 ± 2,42.3 ± 3.4,"COc1cc(/C=C/C(O)=C/C(=O)c2ccccc2)ccc1O [Compound 1a, (2Z,4E)-3-Hydroxy-5-(4-hydroxy-3-methoxyphenyl)-1-phenylpenta-2,4-dien-1-one]",104 ± 6.7,0.59,32.2,55.7,0.88,–,–,–,–,–,–,–,–,–
–,–,–,"OO [Compound H2O2, hydrogen peroxide, reference compound]",–,–,–,–,–,2,about 62%,200,–,–,–,–,–,–
–,–,–,"COc1cc(/C=C/C(=O)CC(=O)/C=C/c2ccc(O)c(OC)c2)ccc1O [Curcumin, reference compound]",48.8 ± 5.1,–,–,–,–,–,–,–,24 ± 3,slight protection,100,55.9 ± 10.6,42.9 ± 9.0,38.1 ± 7.4
